# Experimental data reported in patent US9341839B2, “Electrowetting display device and dye composition for electrowetting display” (FUJIFILM CORPORATION, priority 2012, dated 2016).
# Assay: Solubility of dye in normal decane
# Assay type: physicochemical
# Conditions: n-decane, 25° C., after heating to 50° C. and leaving 12 hours; 40% by mass added
substance,measurement,value
tetraphenylporphine [Comparative compound H-1],Solubility in Decane,less than 0.1% by mass
